Reference: patent US20110039770A1, “INHIBITORS OF PROTEIN KINASE C ISOFORMS AND USES THEREOF” (PHARMAGAP INC., priority 2005, published 2011)
Read-outs that look alike come from different tables or passages of the source. One block for each compound: values may come before it. Where a SMILES comes first, the peptide text is derived from it. The star is where a group is joined. PNA(A) = NCCN(CC(=O)*)C(=O)Cn1cnc2c(N)ncnc21

How the values were obtained:
PKC-β = molecular target: T1, PKC-β (Homo sapiens, UniProt P05771); assay: Competition of PRE with PKC-β antibody binding, Protocol B, IMR-32
T1 construct: PRE 2 and PRE 3 in IMR-32 Neuroblastoma Cells: Protocol A; endogenous in cells; host or cells: IMR-32 human neuroblastoma cells
Procedure: The ability of the peptides PRE 2 and PRE 3 (see Table 4) to interfere with the binding of a PKC-α-specific polyclonal antibody (Santa Cruz Biotechnology, Inc.) to PKC-α was determined using a modified version of the protocol outlined above in which the test peptide was added directly to the cell extract prior to electrophoresis at a concentration of either 5× or 15× the concentration of the protein applied to each well of the gel for the Western blots (20 μg).
Peptides PRE 2 and PRE 3 (see Table 4) were tested for their ability to interfere with the binding of a PKC-β-specific polyclonal antibody (Santa Cruz Biotechnology, Inc.) to PKC-β using the general protocol described in Example 3.

PKC-α = molecular target: T2, PKC-α (Rattus norvegicus, UniProt P05696); assay: Competition of PRE with PKC-α antibody binding on Western blot, Protocol A, C6Cx43 lysate; settings: C6Cx43 cells
T2 construct: C6Cx43 cells (rat glioma transfected cells overexpressing connexin 43); endogenous in cells; host or cells: C6Cx43 rat glioma cells (transfected with connexin 43, not with PKC)
Procedure: The ability of the PRE 1, 2 and 3 (see Table 3 above) to interfere with the binding of a PKC-α-specific polyclonal antibody to PKC-α was determined using the following protocol.
Cell lysates from either IMR-32 (human neuroblastoma) cells or C6Cx43 cells (rat glioma transfected cells overexpressing connexin 43) were obtained using standard protocols and the proteins of the lysate were separated by SDS PAGE electrophoresis and electrotransferred onto a nitrocellulose membrane. The membrane was incubated for 30 minutes in blocking buffer (TBST) containing the test peptide at either 5× or 20× the concentrations of the primary antibody. A primary polyclonal antibody specific for PKC-α (Santa Cruz Biotechnology, Inc., CA) was then added (15 μg/ml) and the membrane incubated for a further 45 minutes. Finally, the primary antibody was detected with a secondary antibody conjugated to alkaline phosphatase using standard procedures. The intensity of the band corresponding to PKC-α was assessed by scanning and densitometry using the Gel-Pro software (Media Cybernetics) to obtain relative band intensities (average of 3 replicas). Control assays were conducted as described above except that blocking buffer without peptide was used.
The results are expressed as relative band intensity and as a percentage of the intensity of the corresponding band in the control assay (“Relative intensity (%)”). “% inhibition” relates to the percentage of the PKC-α band that is inaccessible to the antibody.

[1] = system: IMR-32 human neuroblastoma cells; settings: IMR-32
Procedure: The ability of compounds PKI 1, PKI 2 and PKI 3 to inhibit cancer cell proliferation was tested in vitro using the human neuroblastoma cell line IMR-32. Monolayer cell cultures were trypsinized and the test compound was added at the doses indicated in Table 24 and internalized by pinocytic endocytosis using Influx TM pinocytic cell-loading reagent, a kit from Molecular Probes (Eugene, Oreg.) following the manufacturer's recommendations. The indicated doses refer to the concentration in the loading medium, which was used on 1×10^6 cells in a 10 μl volume, i.e. contained 10 μg to 100 ug of test compound that provides […] per cell. […] The cells were treated on day 0 of the experiment. The cells loaded with test compound were cultured in 96 well plates (5,000 cells in 100 μl per well), and the proliferation was monitored over 3 consecutive days. The increase in cell population was quantified using a Hoechst reagent-based assay (modified from Rao and Otto, 1992, Analytical Biochem. 207:186-192) that measures the total DNA of the population. Fluorescence was measured using a Millipore CytoFluor 2350 plate reader (excitation at 360 nm and emission at 460 nm). The measurements were obtained as relative fluorescence intensity, a value that is directly correlated to the total number of cells. Data are expressed as a percentage of matching controls that were supplemented with culture medium alone.
The ability of the compound TIM 9 to inhibit cancer cell proliferation was tested in vitro using the human neuroblastoma cell line IMR-32 and following the general protocol described in Example 14.
The ability of the compound TIM 11 to inhibit IMR-32 cancer cell proliferation was tested in vitro following the general protocol described in Example 14.
The ability of the compound TIM 10 to inhibit cancer cell proliferation was tested in vitro using the human neuroblastoma IMR-32 cell line and following the general protocol described in Example 14.

MDA MB231 cells = assay: Matrigel invasion/migration with EGF as chemoattractant; format: cell-based, human; settings: 24 h; 10 ng/ml EGF
Procedure: Experiments were conducted to investigate the effect of compound TIM 10 (5 mM dose) on migration of human breast cancer cells (MDA MB231) with and without EGF (10 ng/ml) as a chemo-attractant. A standard a two-chamber culture system (BD BIOcoat™ Matrigel™ Invasion Chamber; BD Biosciences Clont, Discovery labware, Immunocytometry system Pharmingen) was employed for these experiments. Control chambers used in the following experiment are similar to the invasion chambers except that no Matrigel matrix is present, thus allowing cells to freely reach the lower membrane surface through the membrane pores.
The ability of compound TIM 10 to inhibit invasion/migration of MDA MB231 cells in the presence of the chemoattractant EGF was measured as described above using EGF 10 ng/mL as the chemoattractant.

T1 sequence (P05771 whole entry): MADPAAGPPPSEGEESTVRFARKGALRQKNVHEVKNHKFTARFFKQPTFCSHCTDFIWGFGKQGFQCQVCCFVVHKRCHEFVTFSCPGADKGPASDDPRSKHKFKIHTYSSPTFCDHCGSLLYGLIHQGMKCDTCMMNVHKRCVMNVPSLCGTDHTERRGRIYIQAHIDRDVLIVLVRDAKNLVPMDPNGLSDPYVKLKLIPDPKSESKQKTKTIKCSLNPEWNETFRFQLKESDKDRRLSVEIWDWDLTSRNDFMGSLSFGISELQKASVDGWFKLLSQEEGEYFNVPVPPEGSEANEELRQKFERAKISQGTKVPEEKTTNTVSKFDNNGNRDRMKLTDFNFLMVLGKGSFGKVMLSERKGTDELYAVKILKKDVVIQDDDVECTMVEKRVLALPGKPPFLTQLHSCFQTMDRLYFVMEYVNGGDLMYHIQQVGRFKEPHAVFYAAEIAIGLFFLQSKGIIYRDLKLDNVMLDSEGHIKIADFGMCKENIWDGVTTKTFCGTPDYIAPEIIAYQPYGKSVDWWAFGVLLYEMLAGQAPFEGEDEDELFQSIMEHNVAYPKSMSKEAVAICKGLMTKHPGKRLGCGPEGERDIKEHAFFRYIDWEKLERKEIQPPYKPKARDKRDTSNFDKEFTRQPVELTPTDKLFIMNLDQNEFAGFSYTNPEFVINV

Band Intensity (PKC-β; 100 μg): 0.0
Relative Intensity (%) (PKC-β; 100 μg): 0.0%
Band Intensity (PKC-β; 200 μg): 0.0
Band Intensity (PKC-β; 300 μg): 0.0
Relative Intensity (%) (PKC-β; 300 μg): 0.0%
Band Intensity (PKC-α; 75 μg): 0.909
Band Intensity (PKC-α; 300 μg): 0.888
Band Intensity (PKC-α; 600 μg): 0.889
Band Intensity (PKC-α; 3.75 mg): 0.603
Band Intensity (PKC-α; 5.25 mg): 0.599
Band Intensity (PKC-α; 7.5 mg): 0.589
Compound: CC[C@H](C)[C@H](NC(=O)[C@H](CO)NC(=O)[C@@H](NC(=O)CNC(=O)[C@@H](NC(=O)[C@H](CC(C)C)NC(=O)[C@H](CC(N)=O)NC(=O)[C@H](CCC(N)=O)NC(=O)[C@H](C)NC(=O)[C@H](CC(=O)O)NC(=O)CNC(=O)CNC(=O)[C@H](CCCCN)NC(=O)[C@@H](NC(=O)[C@H](CCC(=O)O)NC(=O)[C@H](CCC(N)=O)NC(=O)[C@@H](NC(=O)CNC(=O)[C@H](CCCCN)NC(=O)[C@H](C)NC(C)=O)[C@@H](C)CC)C(C)C)[C@@H](C)CC)[C@@H](C)CC)C(N)=O [PRE 3] (Ac-AKGIQEVKGGDAQNLIGISI-NH2)

Compound: CC[C@H](C)[C@H](NC(=O)[C@H](CO)NC(=O)[C@@H](NC(=O)CNC(=O)[C@@H](NC(=O)[C@H](CC(C)C)NC(=O)[C@H](CC(N)=O)NC(=O)[C@H](CCC(N)=O)NC(=O)[C@H](C)NC(=O)[C@H](CC(=O)O)NC(=O)[C@H](CCCCN)NC(=O)CNC(=O)CNC(=O)CNC(=O)CNC(=O)CNC(=O)CNC(=O)CNC(=O)[C@H](CC(C)C)NC(=O)[C@H](CCCNC(=N)N)NC(=O)[C@H](Cc1ccccc1)NC(=O)[C@H](CCCCNC(=O)CN(CCN)C(=O)Cn1cnc2c(N)ncnc21)NC(=O)[C@H](CCCNC(=N)N)NC(=O)[C@H](CCCNC(=N)N)NC(=O)[C@H](Cc1ccccc1)NC(C)=O)[C@@H](C)CC)[C@@H](C)CC)C(N)=O [TIM 10] (Ac-FRRK(PNA(A))FRLGGGGGGGKDAQNLIGISI-NH2)
% Cell Survival ([1]; 100 μM, 24 Hours): 93%
% Cell Survival ([1]; 100 μM, 48 Hours): 80%
% Cell Survival ([1]; 100 μM, 72 Hours): 77%
% Cell Survival ([1]; 500 μM, 24 Hours): 91%
% Cell Survival ([1]; 500 μM, 48 Hours): 76%
% Cell Survival ([1]; 500 μM, 72 Hours): 73%
% Cell Survival ([1]; 1 mM, 24 Hours): 90%
% Cell Survival ([1]; 1 mM, 48 Hours): 77%
% Cell Survival ([1]; 1 mM, 72 Hours): 70%
% Cell Survival ([1]; 5 mM, 24 Hours): 81%
% Cell Survival ([1]; 5 mM, 48 Hours): 76%
% Cell Survival ([1]; 5 mM, 72 Hours): 66%
inhibition in cell growth (MDA MB231 cells): 25%
